{"source": "patent US6670383B2", "about": "“Pyranocoumarin compounds as a novel pharmacophore with anti-TB activity” (priority 2001, dated 2003)", "key": {"[1]": {"test_system": "M. tuberculosis' synthesis of protein, RNA, DNA and lipid", "experiment": "incorporation of radiolabeled precursors into mycobacterial macromolecular components", "assay_type": "cell-based"}, "[2]": {"test_system": "M. tuberculosis strain H37Ra", "experiment": "MIC against strains of Table 1", "assay_type": "cell-based"}, "[3]": {"experiment": "IC50 of Table 2 (used for SI = IC50/MIC; test not described)"}, "[4]": {"test_system": "H37Rv strain of M. tuberculosis", "experiment": "BACTEC 460 radiometric system in BACTEC 12B medium: inhibition and MIC", "assay_type": "cell-based", "conditions": "for % Inhibition: 12.5 μg/mL; for MIC: lowest concentration inhibiting 99% of the inoculum"}, "[5]": {"test_system": "M. tuberculosis strain Erdman (TMCC 107/ATCC 35801)", "experiment": "bone marrow-derived murine macrophage model, BC99", "assay_type": "cell-based"}, "[6]": {"test_system": "M. tuberculosis strain H37Rv", "experiment": "MIC against strains of Table 1", "assay_type": "cell-based"}, "[7]": {"test_system": "M. avium", "experiment": "inhibition of M. avium", "assay_type": "cell-based", "conditions": "12.5 μg/mL", "procedure": "(§1) For comparison, MICs for the first line anti-TB drugs are 0.025-0.05 μg/mL for isoniazid, 0.005-0.2 μg/mL for rifampin, and 0.4-10 μg/mL for ethambutol. However, in a bone marrow-derived murine macrophage model, the BC 99 value of (+)-calanolide A, a concentration at which 99% of the inoculum of M. tuberculosis is destroyed, was 1.1 μg/mL (3 μM) against strain Erdman (TMCC 107/ATCC 35801) and 1.8 μg/mL (5 μM) against strain CSU 93 (CDC-95-031551), compared to 0.7-0.8 μg/mL (5-6 μM) for the positive control drug isoniazide."}, "[8]": {"test_system": "M. tuberculosis strain CSU 93 (CDC-95-031551)", "experiment": "bone marrow-derived murine macrophage model, BC99", "assay_type": "cell-based", "conditions": "concentration at which 99% of the inoculum is destroyed", "procedure": "as §1"}, "[9]": {"test_system": "TB", "conditions": "in vivo; cited from earlier work"}, "[10]": {"test_system": "M. tuberculosis", "conditions": "first line anti-TB drugs, for comparison; cited from earlier work"}, "[11]": {"test_system": "M. tuberculosis H37Ra", "experiment": "colorimetric microdilution broth assay with alamar Blue, initial screen at four log10 dilutions", "assay_type": "cell-based", "conditions": "Mycobacterium tuberculosis, H37RA, initial screening at 0.128, 1.28, 12.8 and 128 μg/mL, read-out: MIC", "procedure": "The compounds synthesized above were evaluated for activity against M. tuberculosis H37Ra using a colorimetric microdilution broth assay that incorporated the REDOX indicator alamar Blue, which indicates the growth and viability by the metabolic reduction of the dye from blue to red^18.\nIn an initial screen, the compounds were assayed in duplicate at four log10 dilutions, with the highest concentration being 128 μg/mL (therefore, tested concentrations were 0.128, 1.28, 12.8, and 128 μg/mL). Each solubilized test compound was diluted in broth medium (Middlebrook 7H9+ADC enrichment+0.2% glycerol) at twice the desired concentration and 0.05 mL of each dilution then added to appropriate wells in duplicate in a 96 well (U-shaped) microtiter plates. A plate format was designed for up to seven (7) compounds per plate. Each plate also included uninoculated drug controls, viability controls, uninoculated medium controls, and positive drug controls. The inoculum for each well consisted of 0.05 mL of culture, standardized as described above to provide an inoculum in each microtiter well of approximately 10^5 CFU/mL. The plates were covered with a lid, placed in polyethylene bags and incubated for at 37° C. for 6 days. At that time, alamar Blue, diluted in Tween 80, was added to each well followed by further incubation for about 20 hours. The plates were read in an optical microplate reader programmed to subtract absorbance at 600 nm from absorbance at 570 nm. This effectively blanked out turbidity and absorbance due to oxidized dye. The amount of dye reduced, resulting in a change from blue to red, is indicative of drug yielding a differential absorption of zero or less."}, "[12]": {"test_system": "M. tuberculosis H37Ra", "experiment": "MIC and MBC determination using 2-fold dilutions", "assay_type": "cell-based", "conditions": "for MIC / MBC: Mycobacterium tuberculosis"}, "[13]": {"conditions": "Mycobacterium tuberculosis, read-out: MIC"}}, "note": "Where “and” joins values, the source holds several entries; their conditions need not be identical. Equal values may be shown once. Read-outs that look alike come from different tables or passages of the source."}
{"molecule": "(+)-Calanolide A [(+)-Calanolide A (1)]", "values": [{"measurement": "inhibition of RNA synthesis, extent and time frame", "setting": "[1]", "value": "very similar to the positive control rifampin"}, {"measurement": "inhibition of protein synthesis", "setting": "[1]", "value": 32, "unit": "%"}, {"measurement": "inhibition of lipid synthesis", "setting": "[1]; […], 12-hour time point, DMSO alone 51%", "value": 99, "unit": "%"}, {"measurement": "inhibition of DNA synthesis", "setting": "[1]; […], period of 3 hours, DMSO alone 24%", "value": "Approximately 77%"}, {"measurement": "MIC", "setting": "[2]", "value": 16, "unit": "µg/mL"}, {"measurement": "IC50", "setting": "[3]", "value": 7.60, "unit": "µg/mL"}, {"measurement": "% Inhibition", "setting": "[4]", "value": 96, "unit": "%"}, {"measurement": "% Inhibition", "setting": "[4]; listed as (+)-calanolide A", "value": "greater than 96%"}, {"measurement": "MIC", "setting": "[4]", "value": 3.13, "unit": "µg/mL"}, {"measurement": "MIC", "setting": "[4]; listed as (+)-calanolide A", "value": "3.13 μg/mL and 8 μM"}, {"measurement": "BC 99", "setting": "[5]; concentration at which 99% of the inoculum is destroyed, strain Erdman", "value": "1.1 μg/mL and 3 μM"}, {"measurement": "kind of agent from drug inhibition patterns", "setting": "[5]; macrophage model", "value": "bactericidal agent"}, {"measurement": "MIC", "setting": "[6]", "value": 8, "unit": "µg/mL"}, {"measurement": "% Inhibition", "setting": "[7]", "value": 81, "unit": "%"}, {"measurement": "BC 99", "setting": "[8]", "value": "1.8 μg/mL and 5 μM"}]}
{"molecule": "CO[C@H]1/C=C/O[C@@]2(C)Oc3c(C)c(O)c4c(O)c(c(/C=N/N5CCN(C)CC5)c(O)c4c3C2=O)NC(=O)/C(C)=C\\C=C\\[C@H](C)[C@H](O)[C@@H](C)[C@@H](O)[C@@H](C)[C@H](OC(C)=O)[C@@H]1C", "note": "[Rifampin]", "values": [{"measurement": "TB relapse rate", "setting": "[9]", "value": 5, "unit": "%"}, {"measurement": "MIC", "setting": "[6]; [13]", "value": 0.016, "unit": "µg/mL"}, {"measurement": "MIC", "setting": "[10]", "value": "0.005 to 0.2", "unit": "µg/mL"}]}
{"molecule": "CC[C@@H](CO)NCCN[C@@H](CC)CO", "note": "[Ethambutol]", "values": [{"measurement": "MIC", "setting": "[2]; [13]", "value": 4, "unit": "µg/mL"}, {"measurement": "MIC", "setting": "[6]; [13]", "value": 2, "unit": "µg/mL"}, {"measurement": "MIC", "setting": "[10]", "value": "0.4 to 10", "unit": "µg/mL"}]}
{"molecule": "CO[C@H]1/C=C/O[C@@]2(C)Oc3c(C)c(O)c4c(O)c(c(/C=N/N5CCN(C6CCCC6)CC5)c(O)c4c3C2=O)NC(=O)/C(C)=C\\C=C\\[C@H](C)[C@H](O)[C@@H](C)[C@@H](O)[C@@H](C)[C@H](OC(C)=O)[C@@H]1C", "note": "[rifapentine]", "values": [{"measurement": "TB relapse rate", "setting": "[9]", "value": 10, "unit": "%"}]}
{"molecule": "[H]/N=C(/N)N[C@H]1[C@H](O)[C@@H](O)[C@H](O[C@@H]2O[C@@H](C)[C@](O)(C=O)[C@H]2O[C@@H]2O[C@@H](CO)[C@H](O)[C@@H](O)[C@@H]2NC)[C@@H](N/C(N)=N\\[H])[C@@H]1O", "note": "[Streptomycin]", "values": [{"measurement": "inhibition of protein synthesis", "setting": "[1]; positive control, at 5 hours", "value": 43, "unit": "%"}, {"measurement": "MIC", "setting": "[6]; [13]", "value": 0.25, "unit": "µg/mL"}]}
{"molecule": "CCCc1cc(=O)oc2c3c(c4c(c12)OC(C)(C)C=C4)O[C@@H](C)[C@H](C)[C@H]3O", "note": "[(−)-Calanolide A (2), (−)-Calanolide A]", "values": [{"measurement": "IC50", "setting": "[3]", "value": ">10", "unit": "µg/mL"}, {"measurement": "% Inhibition", "setting": "[4]", "value": 98, "unit": "%"}, {"measurement": "MIC", "setting": "[4]", "value": 6.25, "unit": "µg/mL"}]}
{"molecule": "CCCc1cc(=O)oc2c(C(=O)CC)c(OC)c3c(c12)OC(C)(C)CC3", "note": "[Compound 44b, 5-Methoxy-2,2-dimethyl-6-propionyl-10-propyl-3,4-dihydro-2H-pyrano[2,3-f]chromen-8-one]", "values": [{"measurement": "MIC", "setting": "[11]", "value": "1.28 to 12.8", "unit": "µg/mL"}, {"measurement": "MIC", "setting": "[12]; 2-fold dilutions, lowest concentration that completely inhibits growth, H37Ra, read-out: MIC", "value": 16, "unit": "µg/mL"}, {"measurement": "MBC", "setting": "[12]; minimum bactericidal concentration, H37Ra, read-out: MBC", "value": "> 64", "unit": "µg/mL"}]}
{"molecule": "CCCc1cc(=O)oc2c(C(N)CC)c(OCCO)c3c(c12)OC(C)(C)C=C3", "note": "(centres unmarked) [Compound 45e, 6-(1-Aminopropyl)-5-(2-hydroxyethoxy)-2,2-dimethyl-10-propyl-2H-pyrano[2,3-f]chromen-8-one]", "values": [{"measurement": "MIC", "setting": "[11]", "value": "1.28 to 12.8", "unit": "µg/mL"}, {"measurement": "effect on M. tuberculosis", "setting": "[12]", "value": "bactericidal"}, {"measurement": "MBC", "setting": "[12]; H37RA", "value": 32, "unit": "µg/mL"}, {"measurement": "MIC", "setting": "[12]; H37RA", "value": 16, "unit": "µg/mL"}]}
{"molecule": "NNC(=O)c1ccncc1", "note": "[Isoniazid]", "values": [{"measurement": "MIC", "setting": "[2]; [13]", "value": 0.063, "unit": "µg/mL"}, {"measurement": "BC 99", "setting": "[5]; positive control, one range printed for strains Erdman and CSU 93, listed as isoniazide", "value": "0.7-0.8 μg/mL and 5-6 μM"}, {"measurement": "MIC", "setting": "[6]; [13]", "value": 0.031, "unit": "µg/mL"}, {"measurement": "MIC", "setting": "[10]", "value": "0.025 to 0.05", "unit": "µg/mL"}]}
